Counter-ions that a name gives are not always drawn.

Here are results for nine molecules from US8404866B2, “Substituted heterocyclic mercaptosulfonamide metalloprotease inhibitors” (Florida State University Research Foundation, priority 2008, dated 2013).

Type in all cases: biochemical
The target of experiment [1] is T1, MMP-14 (cdMT-1; human recombinant catalytic domain of membrane-type 1 matrix metalloproteinase) (Homo sapiens, UniProt P50281).
T1 construct: human recombinant catalytic domain of membrane-type 1 matrix metalloproteinase (cdMT1-MMP)
The experiment can be described thus: Enzyme kinetic assay, inhibition of MMP-14. To be noted: read-out: Ki (value in parentheses), cdMT-1 MMP-14. The source says: (§1) The following protocol was used to obtain the data found in the following table. Materials: The fluorescent peptide substrates for matrix metalloproteinases (MMPs) used were purchased from Bachem Chem. Co. The metal salts and Brij-35 were purchased from Fisher Scientific Inc. All other chemicals were purchased from Sigma-Aldrich Chem. Co. The sources and biochemical characterizations of multiple MMPs, including MMP-1/human fibroblast collagenase (HFC), MMP-2/human fibroblast gelatinase (HFG), MMP-8/human neutrophil collagenase (HNC), and MMP-9/human neutrophil gelatinase (HNG), MMP-7/human matrilysin (MLN), MMP-3/human fibroblast stromelysin-1 (HFS), human recombinant catalytic domain of membrane-type 1 matrix metalloproteinase (cdMT1-MMP), catalytic domain of MMP-12/metalloelastase (cdMET), and MMP-26/human endometase (EDM) were described previously (Sang, Q. X., Birkedal-Hansen, H., and Van Wart, H. E. Proteolytic and non-proteolytic activation of human neutrophil progelatinase B. Biochim. Biophys. Acta. 1995; 1251, 99-108; Sang, Q. A., Bodden, M. K., and Windsor, L. J. Activation of human progelatinase A by collagenase and matrilysin: activation of procollagenase by matrilysin. J. Protein. Chem. 1996; 15, 243-253; Li, H., Bauzon, D. E., Xu, X., Tschesche, H., Cao, J., and Sang, Q.-X. A. Immunological characterization of cell-surface and soluble forms of membrane type 1 matrix metalloproteinase in human breast cancer cells and in fibroblasts. Molec. Carcinog. 1998; 22, 84-94; Park, H. I., Ni, J., Gerkema, F. E., Liu, D., Belozerov, V. E., and Sang, Q.-X. A. Identification and characterization of human endometase (Matrix metalloproteinase-26) from endometrial tumor. J. Biol. Chem., 2000; 275, 20540-20544). The active concentrations of MMPs were determined by titration with GM6001, a tight-binding MMP inhibitor, as described previously (Park, H. I., Turk, B. E., Gerkema, F. E., Cantley, L. C., and Sang, Q.-X. A. Peptide substrate specificities and protein cleavage sites of human endometase/matrilysin-2/matrix metalloproteinase-26. J. Biol. Chem. 2002; 277, 35168-35175).
(§2) The active inhibitor concentrations were estimated by titrating the mercapto group with 5,5′-dithiobis(2-nitrobenzoic acid) (DTNB; Ellman's reagent) as described previously (Ellman, G. L. A colorimetric method for determining low concentrations of mercaptans. Arch. Biochem. Biophys. 1958; 74, 443-450; Ellman, G. L. Tissue sulfhydryl groups. Arch. Biochem. Biophys. 1959; 82, 70-77; Riddles, P. W., Blakeley, R. L., and Zerner, B. Ellman's reagent: 5,5′-dithiobis(2-nitrobenzoic acid)—a reexamination. Anal. Biochem. 1979; 94, 75-81). Briefly, the reaction of DTNB with the mercapto group produces 2-nitro-5-thiobenzoic acid (TNB). The concentration of TNB is then measured by monitoring the absorbance at 412 nm. Cysteine was used to generate the standard curve with a molar extinction coefficient of 14,000±500 M^−1 cm^−1, which is close to the value in the literature (Riddles, P. W., Blakeley, R. L., and Zerner, B. Ellman's reagent: 5,5′-dithiobis(2-nitrobenzoic acid)—a reexamination. Anal. Biochem. 1979; 94, 75-81).
(§3) The substrate Mca-PLGLDpaAR-NH2 was used to measure inhibition constants (Knight, C. G., Willenbrock. F., and Murphy, G. A novel coumarin-labelled peptide for sensitive continuous assays of the matrix metalloproteinases. FEBS Lett. 1992; 296, 263-266). Enzymatic assays were performed at 25° C. in 50 mM HEPES buffer at pH 7.5 in the presence of 10 mM CaCl2, 0.2 M NaCl, and 0.01% or 0.05% Brij-35 with substrate concentrations of 1 μM. The release of product was monitored by measuring fluorescence (excitation and emission wavelengths of 328 nm and 393 nm, respectively) with a Perkin Elmer Luminescence Spectrophotometer LS 50B connected to a temperature controlled water bath. All stock solutions of inhibitors were in dimethyl sulfoxide. […]

Experiment [2] addresses MMP-9 (HNG; human neutrophil gelatinase) (Homo sapiens, UniProt P14780). The experiment can be described thus: Enzyme kinetic assay, inhibition of MMP-9. To be noted: read-out: Ki (value in parentheses), HNG MMP-9.
Description: as §1, §2, §3

The target of experiment [3] is MMP-3 (HFS; human fibroblast stromelysin-1) (Homo sapiens, UniProt P08254). Briefly: Enzyme kinetic assay, inhibition of MMP-3. To be noted: for Ki: read-out: Ki (value in parentheses), HFS MMP-3; for IC50: 25° C., pH 7.5, substrate 1 μM, read-out: IC50 (value without parentheses), HFS MMP-3.
Sequence of MMP-3 (HFS; human fibroblast stromelysin-1) (P08254 100-477): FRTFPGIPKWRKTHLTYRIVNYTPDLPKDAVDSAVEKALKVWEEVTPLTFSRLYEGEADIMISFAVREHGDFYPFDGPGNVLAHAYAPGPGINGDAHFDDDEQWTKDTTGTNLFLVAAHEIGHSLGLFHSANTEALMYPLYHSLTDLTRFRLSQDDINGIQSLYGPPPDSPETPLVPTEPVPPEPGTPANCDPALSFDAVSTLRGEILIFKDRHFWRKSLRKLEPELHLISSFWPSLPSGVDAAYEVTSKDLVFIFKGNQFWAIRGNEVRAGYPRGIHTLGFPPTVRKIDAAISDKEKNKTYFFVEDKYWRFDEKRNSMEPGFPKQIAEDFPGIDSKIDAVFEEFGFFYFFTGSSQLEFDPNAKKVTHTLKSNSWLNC
Description: as §1, §2, §3

Experiment [4] has as its target T2, MMP-7 (MLN; human matrilysin) (Homo sapiens, UniProt P09237).
T2 sequence (P09237 95-267): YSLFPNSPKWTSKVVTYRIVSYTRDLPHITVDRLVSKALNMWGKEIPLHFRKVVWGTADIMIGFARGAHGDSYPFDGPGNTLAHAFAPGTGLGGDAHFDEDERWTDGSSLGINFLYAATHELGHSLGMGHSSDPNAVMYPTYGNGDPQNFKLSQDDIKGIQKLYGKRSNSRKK
Briefly: Enzyme kinetic assay, inhibition of MMP-7. To be noted: for IC50: 25° C., pH 7.5, substrate 1 μM, read-out: IC50 (value without parentheses), MLN MMP-7; for Ki: read-out: Ki (value in parentheses), MLN MMP-7.
Description: as §1, §2, §3

Experiment [5] has as its target T3, MMP-2 (HFG; human fibroblast gelatinase) (Homo sapiens, UniProt P08253).
T3 sequence (P08253 110-660): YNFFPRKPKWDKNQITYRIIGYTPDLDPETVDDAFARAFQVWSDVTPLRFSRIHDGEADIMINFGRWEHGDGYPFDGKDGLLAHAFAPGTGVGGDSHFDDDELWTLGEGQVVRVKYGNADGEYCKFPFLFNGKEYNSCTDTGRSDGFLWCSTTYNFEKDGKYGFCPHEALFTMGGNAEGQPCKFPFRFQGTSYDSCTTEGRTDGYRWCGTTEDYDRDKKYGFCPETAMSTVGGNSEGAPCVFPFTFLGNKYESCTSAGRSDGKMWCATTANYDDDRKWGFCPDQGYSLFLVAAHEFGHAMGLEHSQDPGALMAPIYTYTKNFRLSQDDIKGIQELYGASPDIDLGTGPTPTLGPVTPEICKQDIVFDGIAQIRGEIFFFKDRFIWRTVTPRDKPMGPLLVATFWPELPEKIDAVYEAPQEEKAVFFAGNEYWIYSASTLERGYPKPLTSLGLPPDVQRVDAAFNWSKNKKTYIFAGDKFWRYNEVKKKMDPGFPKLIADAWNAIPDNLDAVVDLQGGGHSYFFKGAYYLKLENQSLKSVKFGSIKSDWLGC
The experiment can be described thus: Enzyme kinetic assay, inhibition of MMP-2. The following applies: read-out: Ki (value in parentheses), HFG MMP-2.
Description: as §1, §2, §3

Sequence of MMP-9 (HNG; human neutrophil gelatinase) (P14780 94-707): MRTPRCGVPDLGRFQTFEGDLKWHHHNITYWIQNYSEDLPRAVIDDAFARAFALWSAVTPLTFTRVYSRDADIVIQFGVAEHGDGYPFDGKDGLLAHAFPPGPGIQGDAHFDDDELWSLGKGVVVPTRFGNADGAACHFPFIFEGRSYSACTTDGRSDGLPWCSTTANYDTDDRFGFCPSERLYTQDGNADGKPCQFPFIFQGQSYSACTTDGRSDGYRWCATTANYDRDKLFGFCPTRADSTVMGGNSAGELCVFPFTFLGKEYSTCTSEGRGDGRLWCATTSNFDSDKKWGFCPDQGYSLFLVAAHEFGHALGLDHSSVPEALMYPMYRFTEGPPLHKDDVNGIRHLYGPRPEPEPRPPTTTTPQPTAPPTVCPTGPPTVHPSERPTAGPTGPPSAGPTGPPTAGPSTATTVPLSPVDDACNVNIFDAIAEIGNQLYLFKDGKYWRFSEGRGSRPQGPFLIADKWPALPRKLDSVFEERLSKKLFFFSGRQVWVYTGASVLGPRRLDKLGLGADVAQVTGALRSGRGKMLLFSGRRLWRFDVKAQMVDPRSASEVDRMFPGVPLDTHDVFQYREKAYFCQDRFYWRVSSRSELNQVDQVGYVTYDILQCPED

Turning to `O=C(OCc1ccccc1)N1C[C@H](NS(=O)(=O)c2ccc(Oc3ccccc3)cc2)[C@@H](S)C1` (racemic) [Example 5, (±)-N-(Benzyloxycarbonyl)-trans-3-(4-phenoxybenzenesulfonamido)-4-mercaptopyrrolidine], the inhibition constant (Ki) (in general, a dissociation constant, usually derived from enzyme kinetics or from competition with a known ligand) was determined as 100 nM in experiment [1], 13 nM in experiment [2], 4500 nM in experiment [3] and 24 nM in experiment [5]. Besides, the IC50 (commonly the concentration that inhibits the measured activity by half) in experiment [4] was over 50000 nM.
As to `CC(=O)NCCCCCC(=O)N1C[C@H](NS(=O)(=O)c2ccc(-c3ccccc3)cc2)[C@@H](S)C1` (racemic) [Example 9, (±)-N-(6-Acetamidohexanoyl)-trans-3-(4-phenylbenzene-sulfonamido)-4-mercaptopyrrolidine], the Ki amounted to 70 nM in experiment [1], 400 nM in experiment [2], 2000 nM in experiment [4] and 63 nM in experiment [5]. Moreover, in experiment [3], the half-maximal inhibitory concentration (IC50) is about 20000 nM.
For `CN([C@H]1CN(C(N)=O)C[C@@H]1S)S(=O)(=O)c1ccc(Oc2ccccc2)cc1` (racemic) [Example 4, (±)-N-Carbamoyl-trans-3-(N-methyl-4-phenoxybenzenesulfonamido)-4-mercaptopyrrolidine], the Ki in experiment [1] stood at 62 nM; in experiment [2], 1.3 nM; in experiment [3], 350 nM; in experiment [5], 2.3 nM. Besides, the IC50 in experiment [4] was over 25000 nM.
As to `O=S(=O)(N[C@H]1CNC[C@@H]1S)c1ccc(Oc2ccccc2)cc1` (racemic) [Example 3, (±)-trans-3-(4-Phenoxybenzenesulfonamido)-4-mercaptopyrrolidine Hydrochloride], the inhibition constant (Ki) in experiment [1] is 110 nM; in experiment [2], 230 nM; in experiment [3], 2500 nM; in experiment [5] it was 27 nM. In experiment [4], the half-inhibitory concentration (IC50) was over 25000 nM.
For `NCCCCCC(=O)N1C[C@H](NS(=O)(=O)c2ccc(Oc3ccccc3)cc2)[C@@H](S)C1` (racemic) [Example 7, (±)-N-(6-Aminohexanoyl)-trans-3-(4-phenoxybenzene-sulfonamido)-4-mercaptopyrrolidine Hydrochloride], the Ki was 5 nM in experiment [1]; 2.3 nM in experiment [2]; 2000 nM in experiment [3]; 4000 nM in experiment [4]; 2.2 nM in experiment [5].
Regarding `O=C(OCc1ccccc1)N1C[C@H](NS(=O)(=O)c2ccc(-c3ccccc3)cc2)[C@@H](S)C1` (racemic) [Example 6, (±)-N-(Benzyloxycarbonyl)-trans-3-(4-phenylbenzenesulfonamido)-4-mercaptopyrrolidine], the figures for the inhibitory constant (Ki) in experiment [1], in experiment [2] and in experiment [5] were 3100 nM, 81 nM and 78 nM, respectively. For the same molecule, the IC50 in experiment [3] is about 7000 nM; in experiment [4] it was over 12500 nM.
As to `CC(=O)NCCCCCC(=O)N1C[C@H](NS(=O)(=O)c2ccc(Oc3ccccc3)cc2)[C@@H](S)C1` (racemic) [Example 8, (±)-N-(6-Acetamidohexanoyl)-trans-3-(4-phenoxy-benzenesulfonamido)-4-mercaptopyrrolidine], the Ki amounted to 4 nM in experiment [1]; 1.5 nM in experiment [2]; 810 nM in experiment [3]; 3000 nM in experiment [4]; 3.8 nM in experiment [5].
Take `NC(=O)N1C[C@H](NS(=O)(=O)c2ccc(Oc3ccccc3)cc2)[C@@H](S)C1` (racemic) [Example 1, (±)-N-Carbamoyl-trans-3-(4-phenoxybenzenesulfonamido)-4-mercaptopyrrolidine]: the Ki in experiment [1] amounted to 11 nM; in experiment [2] it was 15 nM; in experiment [3], 460 nM; in experiment [5], 3.9 nM. Besides, the IC50 in experiment [4] was over 25000 nM.
The matching figures for `O=C(NCCN1C(=O)c2ccccc2C1=O)N1C[C@H](NS(=O)(=O)c2ccc(Oc3ccccc3)cc2)[C@@H](S)C1` (racemic) [Example 2, (±)-N-(2-Phthalimidoethylaminocarbonyl)-trans-3-(4-phenoxybenzenesulfonamido)-4-mercaptopyrrolidine]: 21 nM, 2.4 nM, 37 nM, 35 nM and over 12500 nM.
